Reference: ChEMBL document CHEMBL1201862, “PubChem BioAssay data set” (2004)
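Compound exposure: 48 hours, 5 concentrations, 96-well plates. GI50 is the concentration that inhibits growth by half.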 Active and inactive are the calls of the source. No stated cut-off is given here; in the data, active = GI50 up to about 1.1 µM and inactive = higher. Square brackets hold non-standard residues; d marks the D form. Peptide text beside a SMILES is read from it. * marks the point of attachment. ξ: configuration not given here. NMeN = CN[C@@H](CC(N)=O)C(=O)O; NMeV = CN[C@H](C(=O)O)C(C)C; ξNMeV = CNC(C(=O)O)C(C)C; Boc = CC(C)(C)OC(=O)*; ξNMeA = CNC(C)C(=O)O

Columns and labels:
Assay in all cases: NCI-60 cell line screen, 48 h
DMS-273 = test system: DMS-273
EKVX = test system: EKVX
HCT-116 = test system: HCT-116
HT-29 = test system: HT-29
Hs-578T = test system: Hs-578T
IGROV-1 = test system: IGROV-1
MDA-MB-435 = test system: MDA-MB-435
MOLT-4 = test system: MOLT-4
Malme-3M = test system: Malme-3M
OVCAR-3 = test system: OVCAR-3
OVCAR-4 = test system: OVCAR-4
PC-3 = test system: PC-3
SF-268 = test system: SF-268
SK-MEL-5 = test system: SK-MEL-5
SK-OV-3 = test system: SK-OV-3
SN12C = test system: SN12C
T47D = test system: T47D
TK-10 = test system: TK-10
U-251 = test system: U-251
UO-31 = test system: UO-31

Measured: GI50

C=C(CCCCCCCCC)CC(=O)SCCNC(=O)CCNC(=O)C(O)C(C)(C)COP(=O)(O)OP(=O)(O)OCC1OC(n2cnc3c(N)ncnc32)C(O)C1OP(=O)(O)O (centres undefined)
inactive: DMS-273 21 µM | EKVX 51.2 µM | HCT-116 45.5 µM | HT-29 68.2 µM | Hs-578T > 64.4 µM | IGROV-1 98.2 µM | MDA-MB-435 26.6 µM | MOLT-4 > 57.1 µM | Malme-3M > 100 µM | OVCAR-3 77.8 µM | OVCAR-4 60.4 µM | PC-3 56.4 µM | SF-268 8.73 µM | SK-MEL-5 31.6 µM | SK-OV-3 > 100 µM | SN12C > 84.3 µM | T47D > 76.9 µM | TK-10 > 100 µM | U-251 49.9 µM | UO-31 99.1 µM

COC(=O)C(C)N(C)C(=O)[C@H](CC(N)=O)N(C)C(=O)[C@@H]1CCCN1C(=O)[C@H](C(C)C)N(C)C(=O)C(C(C)C)N(C)C(=O)[C@@H](NC(=O)OC(C)(C)C)C(C)C (some centres undefined) (Boc-V[ξNMeV][NMeV]P[NMeN][ξNMeA]-OMe)
inactive: DMS-273 42.1 µM | EKVX > 50 µM | HCT-116 30.3 µM | HT-29 > 50 µM | IGROV-1 > 50 µM | MDA-MB-435 > 50 µM | MOLT-4 9.93 µM | Malme-3M > 100 µM | OVCAR-3 > 50 µM | OVCAR-4 > 100 µM | PC-3 11.4 µM | SF-268 > 100 µM | SK-MEL-5 31.7 µM | SK-OV-3 > 50 µM | SN12C > 50 µM | T47D > 50 µM | TK-10 > 50 µM | U-251 > 50 µM | UO-31 24.7 µM
